# pIC50: −log10 of the molar value.
# Biological target: DNA polymerase beta (Homo sapiens, UniProt P06746)
# Assay: Inhibition of DNA polymerase beta lyase activity
row,pIC50,Structure (SMILES)
1,4.90,C[C@H]1[C@H](C)CC[C@]2(C(=O)O)CC[C@]3(C)C(=CC[C@@H]4[C@@]5(C)C[C@@H](O)[C@H](O)C(C)(C)[C@@H]5CC[C@]43C)[C@H]12 [COROSOLIC ACID]
2,4.73,C[C@H]1[C@H](C)CC[C@]2(C(=O)O)CC[C@]3(C)C(=CC[C@@H]4[C@@]5(C)CC[C@H](O)C(C)(C)[C@@H]5CC[C@]43C)[C@H]12 [URSOLIC ACID]
3,4.67,CC(=O)O[C@H]1[C@H](O)C[C@]2(C)[C@H]3CC=C4[C@@H]5[C@@H](C)[C@H](C)CC[C@]5(C(=O)O)CC[C@@]4(C)[C@]3(C)CC[C@H]2C1(C)C
4,< 4.30,C[C@H]1[C@H](C)CC[C@]2(C(=O)O)CC[C@]3(C)C(=CC[C@@H]4[C@@]5(C)CC[C@H](OC(=O)/C=C/c6ccc(O)cc6)C(C)(C)[C@@H]5CC[C@]43C)[C@H]12
5,4.58,CC[C@H](CC[C@@H](C)[C@H]1CC[C@H]2[C@@H]3CC=C4C[C@@H](O[C@@H]5O[C@H](CO)[C@@H](O)[C@H](O)[C@H]5O)CC[C@]4(C)[C@H]3CC[C@]12C)C(C)C [SITOGLUSIDE]
